Test results: patent publication US7419976B2, “Diazepanes derivatives useful as IFA inhibitors” (Novartis AG, priority 2003, dated 2008)

Tests used:
[1] = tested on: allergic contact dermatitis in mice; test: Test Example: inhibition of allergic contact dermatitis (ACD) in vivo, pinnal weight and MPO activity; conditions: oral single dose 0.01-10.0 mg/kg
Procedure: Groups of 8 female mice are sensitized epicutaneously with 50 μl of 2% oxazolone on the shaved ventral abdomen (day 1) and challenged with 10 μl of 0.2% oxazolone on the inner surface of the right ear (day 8). The unchallenged left ears serve as normal controls and dermatitis is evaluated from the difference in pinnal weight which is taken as a measure of inflammatory swelling (day 9). In addition, activity of myeloperoxidase (MPO) serving as a measure of leukocyte influx in ear homogenates are determined as described by Bradley et al., J. Invest. Dermatol; 78:206-209 (1982). The animals are treated orally 2 hours after challenge with the test compound of example 10. Activity is calculated as the percentage of inhibition of inflammatory auricular swelling and of MPO activity relative to animals treated with the vehicle alone. For comparison mice are treated intraperitoneally with 100 μl monoclonal anti-mouse LFA-1 antibody 1 hour before challenge and evaluated as described.

LFA-1/ICAM-1 = molecular target: T1, LFA-1/ICAM-1 (Homo sapiens, UniProt P20701); test: Cell free assay: binding of soluble human ICAM-1 to immobilized human LFA-1; conditions: immobilized human LFA-1, biotinylated ICAM-1, read-out: IC50, inhibition of adhesion of LFA-1 to ICAM-1
T1 construct: endogenous in cells; ICAM-1-Cκ fusion: made in house in the baculovirus system
T1 sequence (P20701 26-1170): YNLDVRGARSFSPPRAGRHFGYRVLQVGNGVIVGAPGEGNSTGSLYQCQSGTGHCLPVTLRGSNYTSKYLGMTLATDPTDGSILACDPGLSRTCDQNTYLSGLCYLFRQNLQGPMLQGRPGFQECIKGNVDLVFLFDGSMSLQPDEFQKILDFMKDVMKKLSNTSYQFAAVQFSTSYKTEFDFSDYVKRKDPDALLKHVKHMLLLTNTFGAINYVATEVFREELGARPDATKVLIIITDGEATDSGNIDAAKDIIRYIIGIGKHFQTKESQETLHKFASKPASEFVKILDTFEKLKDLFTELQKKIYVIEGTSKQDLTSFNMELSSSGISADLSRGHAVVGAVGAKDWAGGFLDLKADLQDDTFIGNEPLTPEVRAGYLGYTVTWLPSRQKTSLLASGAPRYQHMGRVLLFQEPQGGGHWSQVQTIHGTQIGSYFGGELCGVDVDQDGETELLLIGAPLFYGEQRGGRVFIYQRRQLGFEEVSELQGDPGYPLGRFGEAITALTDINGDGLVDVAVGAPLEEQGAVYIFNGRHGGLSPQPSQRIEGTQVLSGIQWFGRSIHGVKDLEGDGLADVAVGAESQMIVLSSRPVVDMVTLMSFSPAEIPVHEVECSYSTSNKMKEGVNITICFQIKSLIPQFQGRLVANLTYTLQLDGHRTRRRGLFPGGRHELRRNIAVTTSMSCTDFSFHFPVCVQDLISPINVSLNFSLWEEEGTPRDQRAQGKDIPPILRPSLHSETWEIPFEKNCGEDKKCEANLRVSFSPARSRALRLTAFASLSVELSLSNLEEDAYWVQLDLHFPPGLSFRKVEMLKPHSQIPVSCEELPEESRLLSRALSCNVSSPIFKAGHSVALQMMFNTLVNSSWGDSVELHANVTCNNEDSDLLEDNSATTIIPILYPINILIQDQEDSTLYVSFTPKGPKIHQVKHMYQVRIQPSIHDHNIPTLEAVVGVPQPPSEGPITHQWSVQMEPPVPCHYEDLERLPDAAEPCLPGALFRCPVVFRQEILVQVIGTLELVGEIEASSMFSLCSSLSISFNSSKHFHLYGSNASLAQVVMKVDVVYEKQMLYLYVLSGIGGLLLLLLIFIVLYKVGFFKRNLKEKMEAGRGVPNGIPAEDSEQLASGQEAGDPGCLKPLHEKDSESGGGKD
T1 sequence (P05107 23-769 partner): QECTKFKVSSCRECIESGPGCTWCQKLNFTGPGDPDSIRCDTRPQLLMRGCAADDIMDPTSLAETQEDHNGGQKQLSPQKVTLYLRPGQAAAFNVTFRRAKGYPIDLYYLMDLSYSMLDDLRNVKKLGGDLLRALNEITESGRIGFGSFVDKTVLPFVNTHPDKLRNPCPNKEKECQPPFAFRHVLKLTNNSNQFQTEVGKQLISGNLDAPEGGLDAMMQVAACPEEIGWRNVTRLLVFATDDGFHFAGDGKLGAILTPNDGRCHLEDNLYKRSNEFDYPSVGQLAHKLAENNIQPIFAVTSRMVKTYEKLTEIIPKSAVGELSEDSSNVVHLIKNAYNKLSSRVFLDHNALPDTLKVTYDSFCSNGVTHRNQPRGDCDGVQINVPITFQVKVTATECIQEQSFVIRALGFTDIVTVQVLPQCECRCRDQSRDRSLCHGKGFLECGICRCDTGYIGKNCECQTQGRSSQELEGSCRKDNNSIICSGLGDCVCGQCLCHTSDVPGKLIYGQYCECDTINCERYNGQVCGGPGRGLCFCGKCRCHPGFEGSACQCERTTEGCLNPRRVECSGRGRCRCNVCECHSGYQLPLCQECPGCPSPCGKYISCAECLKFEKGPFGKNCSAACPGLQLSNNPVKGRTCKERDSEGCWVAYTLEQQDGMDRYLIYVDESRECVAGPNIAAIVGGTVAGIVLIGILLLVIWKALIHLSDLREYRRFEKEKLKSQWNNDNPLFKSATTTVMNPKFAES
Procedure: The assay determines the binding of soluble human ICAM-1 to immobilized human LFA-1. LFA-1 is purified from JY cells, a human lymphoblastoid B cell-line, by immunoaffinity chromatography analogously as described by Dustin et al., J. Immunol. 148, 2654-2663, 1992. ICAM-1 mouse Cκ fusion protein (ICAM-1) is produced using the baculovirus system as described by Weitz-Schmidt et al., Anal. Biochem. 238, 184-190, 1996. Purified LFA-1 is diluted 1:20 in phosphate buffered saline (PBS) containing 2 mM MgCl2, pH 7.4 and coated onto microtiter plates (Nunc) at 37° for 3 hours. Plates are blocked with 1% heat-treated bovine serum albumin in PBS for 2 hours at 37° followed by a washing step using PBS, 2 mM MgCl2, 1% fetal calf serum, pH 7.4 (assay buffer). Compounds of the present invention (10 mM solution in DMSO) are diluted in assay buffer and added to the plates. Biotinylated recombinant ICAM-1 in assay buffer (6 μg/ml) is added and allowed to bind at 37° for one hour. After incubation, wells are washed with assay buffer. Streptavidin-peroxidase diluted 1:5000 in assay buffer is added and incubated for 45 min at 37°. […] The reaction is stopped after 20 minutes and bound ICAM-1 is determined by measuring the optical density at 405 nm in a microplate reader.

[2] = tested on: allergic contact dermatitis in NMRI mice; test: Allergic contact dermatitis (ACD) in vivo test system, oxazolone, auricular weight; conditions: p.o., 0.03 mg/kg, 2 hours after challenge
Procedure: Groups of 8 female NMRI mice are sensitized on the shaved abdomen with 50 μl of oxazolone (2% in acetone) and challenged with 10 μl of 0.2% oxazolone on the inner surface of the right ear 7 days later. The unchallenged left ears serve as normal controls and dermatitis is evaluated from the individual differences in auricular weights, which are taken as a measure of inflammatory swelling 24 hours after the challenge. Dermatitis is evaluated in test- and control groups. The test groups are treated with the test compounds orally (2 hours after challenge), the controls are treated similarly with the vehicles alone. For oral administration the compounds are administered in an oil in H2O emulsion. The data of the test- and the vehicle-treated control groups are statistically analysed by ANOVA followed by Dunnet T-test (normal distribution or data) or by H and U-test, respectively. […] For example, compound of Example 14 has an inhibiting effect in this assay of >30% when administered p.o. at a dose of 0.03 mg/kg.

Row | Structure (SMILES) | inhibition of the inflammatory response ([1]; 2 hours after challenge) | inhibition of MPO activity versus inhibition of swelling ([1]; ear homogenates) | IC50 (LFA-1/ICAM-1) | inhibiting effect in allergic contact dermatitis (auricular swelling) [2]
1 | C[C@@H]1CCN([C@H](Cc2cccc3ccccc23)C(N)=O)C(=O)[C@H](c2ccc(F)c(Cl)c2)N1C(=O)Cc1ccc2ncccc2c1 [Example 10, (R)-2-[(3S,5R)-3-(3-Chloro-4-fluoro-phenyl)-5-methyl-2-oxo-4-(2-quinolin-6-yl-acetyl)-[1,4]diazepan-1-yl]-3-naphthalen-1-yl-propionamide] | 40-50% | Inhibition of swelling compared with inhibition of MPO activity is observed |  | 
2 | CC1CCN(C(Cc2cccc3ccccc23)C(N)=O)C(=O)C(c2cccc(F)c2)N1C(=O)Cc1ccc2c(c1)OCO2 [Example 13, (R)-2-[4-(2-Benzo[1,3]dioxol-5-yl-acetyl)-3,5-cis-3-(3-fluoro-phenyl)-5-methyl-2-oxo-[1,4]diazepan-1-yl]-3-naphthalen-1-yl-propionamide] |  |  | 430 nM | 
3 | C[C@@H]1CCN([C@H](Cc2cccc3ccccc23)C(N)=O)C(=O)[C@H](c2cccc(Cl)c2)N1C(=O)Cc1ccc2c(c1)OCO2 [Example 14, (R)-2-[(3S,5R)-4-(2-Benzo[1,3]dioxol-5-yl-acetyl)-3-(3-chloro-phenyl)-5-methyl-2-oxo-[1,4]diazepan-1-yl]-3-naphthalen-1-yl-propionamide] |  |  | 90 nM | > 30%
